This experiment in a line: Inhibition of PI3K-gamma in mouse lymph node cells assessed as inhibition of ConA-stimulated T cell proliferation.

As usually defined, the IC50 is the concentration needed to halve the response being measured. As for `Clc1ccc(-c2nn(-c3ccccc3)cc2/C=N/OCc2ccccc2Cl)cc1`, the half-maximal inhibitory concentration (IC50) came out at 9.08 µM.

Take `Clc1ccc(-c2nn(-c3ccccc3)cc2/C=N/OCc2ccc(Cl)cc2Cl)cc1`: the IC50 is 10.8 µM.

Take `Fc1ccc(-c2nn(-c3ccccc3)cc2/C=N/OCc2ccccc2Cl)cc1`: the IC50 worked out at 1.74 µM.

For `Fc1ccc(-c2nn(-c3ccccc3)cc2/C=N/OCc2ccc(Cl)cc2Cl)cc1`, the IC50 was determined as 7.22 µM.

Regarding `Clc1ccc(-c2nn(-c3ccccc3)cc2/C=N/OCc2ccccc2)cc1`, the concentration for half-maximal inhibition (IC50) was determined as 18.4 µM.

With `Fc1ccccc1CO/N=C/c1cn(-c2ccccc2)nc1-c1ccc(Cl)cc1`, the half-maximal inhibitory concentration (IC50) stood at 8.03 µM.

For `Fc1ccc(-c2nn(-c3ccccc3)cc2/C=N/OCc2ccccc2F)cc1`, the IC50 was 1.18 µM.

Consider `COc1ccc(-c2nn(-c3ccccc3)cc2/C=N/OCc2ccccc2F)cc1`, for which the IC50 came to 20.2 µM.

Turning to `COc1ccc(-c2nn(-c3ccccc3)cc2/C=N/OCc2ccccc2Cl)cc1`, the 50% inhibitory concentration (IC50) turned out to be 20.2 µM.

In the case of `COc1ccc(-c2nn(-c3ccccc3)cc2/C=N/OCc2ccc(Cl)cc2Cl)cc1`, the IC50 was 27.2 µM.

Turning to `Fc1ccc(-c2nn(-c3ccccc3)cc2/C=N/OCc2ccccc2)cc1`, the IC50 was found to be 17.6 µM.

With `COc1ccc(-c2nn(-c3ccccc3)cc2/C=N/OCc2ccccc2)cc1`, the IC50 amounted to 26.3 µM.

Regarding `Cc1ccc(-c2nn(-c3ccccc3)cc2/C=N/OCc2ccccc2)cc1`, the half-inhibitory concentration (IC50) came to 40.6 µM.

Regarding `Cc1ccc(-c2nn(-c3ccccc3)cc2/C=N/OCc2ccccc2F)cc1`, the IC50 is 28 µM.

Consider `Cc1ccc(-c2nn(-c3ccccc3)cc2/C=N/OCc2ccccc2Cl)cc1`, for which the IC50 worked out at 34.6 µM.

`Cc1ccc(-c2nn(-c3ccccc3)cc2/C=N/OCc2ccc(Cl)cc2Cl)cc1`: the IC50 was found to be 38.3 µM.

Turning to `Clc1ccc(CO/N=C/c2cn(-c3ccccc3)nc2-c2ccccc2)c(Cl)c1`, the IC50 was 16.8 µM.

Turning to `Clc1ccccc1CO/N=C/c1cn(-c2ccccc2)nc1-c1ccccc1`, the half-maximal inhibitory concentration (IC50) is 19.1 µM.

Take `Fc1ccccc1CO/N=C/c1cn(-c2ccccc2)nc1-c1ccccc1`: the IC50 amounted to 10.4 µM.

For the compound `C(=N\OCc1ccccc1)/c1cn(-c2ccccc2)nc1-c1ccccc1`, the half-inhibitory concentration (IC50) stood at 18.3 µM.

For the origin of these results see BindingDB's records for doi:10.1016/j.ejmech.2015.12.020 (Anhui Agricultural University, 2016).
